Assay results reported in patent US20110027846A1, “CONTROL OF BACTERIA IN FERMENTATION PROCESSES” (priority 2007, published 2011).

Legend:
[1] = system: bacteria; test: bacteria level on PCA medium after biocide contact (Comparative Example 3); type: cell-based; conditions: PCT medium, 2 hours after contact; biocide concentration 50 ppm
Description: (§1) A comparison is done to show the effect of four different biocides on yeast level and bacteria level in various media and at various points relative to introduction of the biocide. SDA medium is synthetic defined agar, and PCA medium is plate count agar. Dow Antimicrobial™ 7287 is a composition containing 20 percent 2,2-dibromo-3-nitrilopropionamide (DBNPA), sold by The Dow Chemical Company.

[2] = system: yeast; test: yeast level on SDA medium after biocide contact (Comparative Example 3); type: cell-based; conditions: 2 hours after contact, biocide concentration 50 ppm
Description: as §1

With Diethyl Carbamate as the substance, how does the Bacteria level [1] read?
The Bacteria level was 2.6 × 10^7 cfu/ml.

And the Yeast level [2]?
The Yeast level was <1.0 × 10^4 cfu/ml.
